Results: US20240147994A1, “ENHANCED YEASTICIDAL EFFICACY OF LACTIC ACID BASED ANTIMICROBIAL HANDWASH” (ECOLAB USA INC., priority 2022, published 2024)
Values joined by “and” are separate entries in the source; they are usually repeats but may differ in a detail not shown here. Identical values can stand only once.

Test system: Modified Vaccinia Virus, strain Ankara (MVA)
Assay type: cell-based
Settings: reference inactivation (LVP-Method)

**Q.** Which results are given for `C=O` [0.7% (w/v) formaldehyde solution, formaldehyde]?
**A.** Reduction factor [lg] ± 95.0% confidence interval, 5 min: 1.70 lg and 1.87 lg and 1.53 lg; Reduction factor [lg] ± 95.0% confidence interval, 15 min: 3.14 lg and 2.96 lg and 2.73 lg; lg-TCID50/ml after 5 min: 4.93 lg-TCID50/ml and 4.88 lg-TCID50/ml and 4.85 lg-TCID50/ml; lg-TCID50/ml after 15 min: 3.49 lg-TCID50/ml and 3.79 lg-TCID50/ml and 3.65 lg-TCID50/ml
